“Also recorded” adds a separate entry of the source.
Key:
[1] = test system: L-type calcium channels (GH4 C1 cells); test: Microscreen assay: K+-stimulated 45Ca uptake by GH4C1 clonal pituitary cells; type: cell-based, rat
Procedure: Frozen crude venom (40 μl) was thawed on ice and mixed with 210 μl of ice-cold 0.1% trifluoroacetic acid (TFA) in H2 O. The solution was centrifuged at room temperature for 5 min. at 13,000 rpm with an Eppendorf Centrifuge, and 240 μl of the supernatant was applied to a reversed-phase C18 HPLC column (100×250 mm, 5 μm bead size, 100 Å pore size, prepacked NGA column from The NEST Group). HPLC was performed using an acetonitrile gradient of 0 to 30% in 0.1% TFA in 105 min. at a flow rate of 4.0 ml/min. The elution was monitored by absorbance at 214 nm and 254 nm, and the fractions were collected manually according to the elution profile. Samples representing 5% of each fraction (corresponding to 2 μl crude venom per sample) were dried by Speed Vac (Savant), suspended in a buffer, and tested for their ability to block ^45 Ca^+ 2 influx into rat GH4C1 cells (see "Microscreen Assay for L-Type Calcium Channel Blockers" below).
Microscreen Assay for L-Type Calcium Channel Blockers
The rat GH4 C1 pituitary cells, a widely available cell line obtained from Dr. Armen Tashjian, Harvard Medical School, was used to measure effect of DOC preparations on calcium influx into cells.
Cell stocks were kept frozen in liquid nitrogen until needed. One ampule was thawed and then seeded onto a T-75 culture flask and grown to confluency. Thereafter, the cells were treated with a 1% trypsin solution in Hanks and replated onto T-25 culture flasks at different dilutions. Stocks were then kept growing and split as needed rather than refrozen. The medium used was Ham's F-10 supplied by Media-Tech containing 10% heat-inactivated fetal calf serum purchased from Hyclone. In general, the best response was obtained from 3-5 day post-confluent cells.
Cell suspension from one T-25 flask was prepared as follows for experiments. The flask was gently washed 2× with Hanks. 10 ml of warm 0.02% EDTA-Hanks was added to the flask and allowed to stand for approximately 30 seconds. The plate was sloshed, inverted and banged on a hard surface to dislodge the cells. 0.6 ml CMT-Hanks was immediately added and sloshed. The cells were then transferred to a 15 ml centrifuge tube and spun for 20-30 seconds at 50 g (700 RPM).
With a pipette, the supernatant was gently aspirated and resuspended by triturating the pellet in 0.4 ml HBBS. The cells were then transferred to a 4 ml flat bottom glass vial with a magnetic flea and stirred at the slowest speed.
Thereafter, low K^+ or high K^+ 4.2 μl ^45 Ca stock [eq. to 2 uCi/4.2 μl cells] was added to the tube and incubation was continued for 1 min. 790 μl HBBS was added to quench calcium uptake by the cells. The mixture was then pipetted up and down 2× before it was subjected to filtration in an Amicon filter manifold with a Whatman glass fiber filter. The filter was rinsed 5× with 5 ml HBBS buffer each. It is important that the buffer be squirted at the side of the chimney, straight down and not directly at the filter, since this may wash cells back up off the filter and onto the chimney. It is also important not to cause a whirlpool effect with the wash and create uneven rinsing of the filter.
A separate chimney for each well was used and each chimney was washed after use.
About 1 min. after the rinse, the chimney was removed to relieve the filter of suction to minimize loss of counts due to cell disruption. A set of four blanks (i.e., measurements using the same solutions but without cells) was run at the end of the assay to determine the background counts.

[2] = test system: K currents, N1E-115 cells; type: cell-based, murine; details: @ 1 U/ml
[3] = test system: synaptosomal calcium channels; test: Microscreen assay: K+-stimulated 45Ca uptake by synaptosomes; type: biochemical, rat
Procedure: The screening method used to test calcium blocking activity in GH4 C1 cells of venom preparations, as described above, was modified as follows for determining the effect of DOC1 on synaptosomal calcium uptake.
After the buffers were made, the osmolarity of the quench buffer was adjusted by dilution with ddH2 O to approximately equal to the average of the osmolarities of the other 3 buffers. All the buffers were made up in ddH^2 O only.
For basal uptake: 5 μl NEN stock+995 μl low K+Ca buffer.
For depolarized (i.e., high K^+) uptake: 5 μl NEN+995 μl high K+Ca buffer.
The synaptosome preparation described below was an adoption of a published procedure. [Hajos F., Brain Res. 93:485-489 (1975)].
Basal buffer used was of the following composition: Basal buffer, pH 7.4, was of following composition: NaCl 147 mM, KCl 3 mM, HEPES 10 mM, Dextrose 10 mM, MgCl2 1.2 mM, and EGTA-Tris 1 mM. The high-K^+ buffer was the same as the basal buffer except that concentrations of NaCl and KCl were 95 mM and 55 mM, respectively.
Synaptosomes were prepared from CD male rats of 4 to 6 weeks (50-75 g). Rats were killed by decapitation with guillotine, and the skull bone was opened in the center with the pointed blade of dissection scissors. The bone was then peeled away with a bone cutter and the brain pried with a micro spatula. […]

[4] = test system: dihydropyridine binding sites on the L-type calcium channels; details: up to 0.6 units/ml; rat brain membranes
Excerpt: Other compounds which act through the same binding site as the dihydropyridines will inhibit this [^3 H]nimodipine binding.

[5] = test system: DHP-resistant R-channels (N1E-115 cells); type: cell-based, murine
[6] = test system: Na current, N1E-115 cells; type: cell-based, murine
[7] = test system: T-type calcium channels (N1E-115 cells); type: cell-based, murine
[8] = test system: L-channels? (cortical neurons); test: Block of K-stimulated 45Ca uptake, cortical neurons; type: cell-based
Excerpt: Summarized in the Table below are results of experiments designed to study the effect of DOC1 on calcium channels by calcium 45 uptake measurement and electrophysiological method, both of which are described above.

[9] = test system: L-type calcium channels (GH4 C1 cells); test: Whole-cell voltage-clamp electrophysiology, GH4 C1 cells; type: cell-based, rat
[10] = test system: stroke; details: cited from earlier work
[11] = test system: L-type channels; details: characteristic of dihydropyridines, background; read-out: IC50 for L-channel block; cited from earlier work

## NCCCNCCCNCCCNCCCCCNC(=O)Cc1c[nH]c2cccc(O)c12 [DOC1]
[1]; FIG. 6, DOC1 compared with DOC3
  relative potency DOC1 vs DOC3 in blocking calcium uptake: several-fold more potent than DOC3
[1]; GH4 C1 clonal pituitary cells
  activity in the 45Ca2+ influx assay / block of potassium-stimulated calcium uptake (in words): blocked potassium-stimulated calcium uptake; also recorded: active; also recorded: possess calcium blocking activity
[1]; consistent inhibitory effects, IC50 varied among GH4 C1 cultures
  Block of DHP-sensitive L-type channels, GH4 C1 clonal pituitary cells, 45Ca uptake, IC50: 0.4-1.5 units/ml
[2]
  Block of K currents, N1E-115 cells: 12%
[3]; concentrations up to 0.5 units/ml, not more than about 30%
  inhibition of K+-stimulated calcium uptake by synaptosomes: ≤ 30%
[3]; in comparison with block of L-type channels in GH4 C1 cells
  block of synaptosomal calcium channels (in words): substantially less effective and potent
[4]
  inhibition of [3H]nimodipine binding (in words): no significant inhibition; also recorded: no inhibition of nimodipine binding
[5]
  Block of DHP-resistant R-channels, N1E-115 cells (electrophys), IC50: 0.4 units/ml
[5]; 10 μM nimodipine, maximum block 45%, FIG. 12
  concentration yielding half-maximal inhibition of high-threshold current remaining after nimodipine: 0.37 U/ml
[5]; 1.0 U/ml DOC1, 10 μM nimodipine, FIG. 11A, 11B
  inhibition of high-threshold current in continuous presence of nimodipine (in words): inhibition of the high-threshold current; also recorded: blocks high-threshold current
[5]; upon washout
  reversibility and dose-dependence of the actions: reversible upon washout and were dose-dependent
[6]; Na or K channels, N1E-115 cells
  specificity for Ca channels over Na or K channels (in words): striking specificity
[6]; on the order of
  selectivity for Ca versus Na currents: two
[6]; words in the IC50 column
  Block of Na current, N1E-115 cells, IC50: not signif.
[7]; evoked by weak depolarizations from negative holding potentials, FIG. 11C
  effect on T-type current (in words): did not substantially affect the T-type current; also recorded: no block of putative T-type channels was observed; also recorded: little effect on T-type current
[7]; words in the IC50 column
  Block of low threshold, inactivating (T?) channels, N1E-115 cells (electrophysiol), IC50: none
[8]; IC50 varied among sensitive cultures
  Block of K-stimulated 45Ca uptake (L-channels?), cortical neurons, IC50: 0.1-0.4 units/ml
[8]; some cultures of cortical neurons
  sensitivity of cortical neuron cultures (in words): insensitive
[9]; 0.4-1.0 U/ml, depolarizations to between -10 and +20 mV
  block of current through calcium channels, GH4 C1 cells: up to 80%
[9]; FIG. 10
  reversibility of block of calcium channel current, GH4 C1 cells: reversibly blocked; also recorded: capable of reversibly blocking electrical current
[9]; puff application
  Block of DHP-sensitive L-type channels, GH4 C1 clonal pituitary cells, electrophysiol, IC50: 1.5 units/ml

## COCCOC(=O)C1=C(C)NC(C)=C(C(=O)OC(C)C)C1c1cccc([N+](=O)[O-])c1 (stereo not shown) [nimodipine]
[10]; background statement
  cardiovascular side effects: significant cardiovascular side effects
[10]; clinical trials, Gelmers et al. 1988
  improvement in the outcome of stroke in clinical trials: Modest improvement in the outcome of stroke
[11]
  IC50: < 1000 nM

## COC(=O)C1=C(C)NC(C)=C(C(=O)OC)C1c1ccccc1[N+](=O)[O-] [nifedipine]
[11]
  IC50: < 1000 nM
